Common to all, as to test: NCI-60 cell line screen, 48 h
Experiment [1] deals with EKVX NSCLC.
In experiment [2] the test system is TK-10 renal.
In experiment [3] the test system is HCT-116 colon.
Experiment [4] relates to UACC-257 melanoma.
The subject of experiment [5] is OVCAR-5 ovarian.
The subject of experiment [6] is SNB-19 CNS.
For experiment [7], the system named is RXF 393 renal.
Experiment [8] has as its system NCI-H226 lung.
The subject of experiment [9] is HCT-15 colon.
For experiment [10], the system named is NCI-H23 lung.

Each structure is given as a SMILES string.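 In this assay, cells in 96-well plates receive the compound at five concentrations for 48 hours. Endpoints are linearly interpolated between the surrounding concentrations. At the GI50, growth is halved. TGI denotes the concentration required for complete inhibition of growth.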

As to `c1ccc(CCN2CCOCC2)nc1`, the TGI in experiment [1], in [2], in experiment [3], in experiment [4], in experiment [5] and in experiment [6] was over 100 µM in each case. Besides, the TGI in experiment [7], in experiment [8], in experiment [9] and in [10] was over 100 µM throughout.

With `O=C(Nc1cccc([N+](=O)[O-])c1)C(=O)C(C(=O)c1ccccc1F)C1OC(=O)C2C=CC=CC21` (stereo unspecified), the TGI was over 100 µM in experiment [1]; over 100 µM in experiment [2]; 48.3 µM in experiment [3]; over 100 µM in experiment [4]; over 100 µM in experiment [5]; over 100 µM in experiment [6]. Besides, the TGI in experiment [7] is 48.6 µM; in [8] it was 52.9 µM; in experiment [9], over 100 µM; in experiment [10] it was over 100 µM.

As to `N#Cc1c(-c2cccc(Cl)c2)cc(-c2ccc(Cl)cc2)nc1N`, the TGI in experiment [1] was determined as 45 µM; in experiment [2], 52.2 µM; in experiment [3] it was 34.1 µM; in experiment [4], 36.1 µM; in [5], 42.9 µM; in experiment [6] it was 25.5 µM. Besides, the TGI in experiment [7] worked out at 32.3 µM; in experiment [8], 34.8 µM; in experiment [9], 32.9 µM; in experiment [10] it was 38.2 µM.

Take `CCOC(=O)C(=O)Nc1c(CC)cccc1C(C)CC` (stereo unspecified): the TGI in experiment [1], in [2], in experiment [3], in [4], in experiment [5] and in experiment [6] was over 100 µM in each case. Further, the TGI in [7], in [8], in experiment [9] and in experiment [10] was over 100 µM each time.

`Cc1nc2c(O)cc3c4c(n(Cc5ccccc5)c3c2nc1C)C(=O)CCC4`: the TGI in experiment [1], in [2], in experiment [3], in experiment [4], in experiment [5] and in [6] was over 100 µM in each case. The TGI is 32.2 µM in experiment [7], over 100 µM in experiment [8], over 100 µM in [9] and over 100 µM in [10].

`O=C1C(c2c(O)[nH]c3ccccc23)=Nc2ccc(Br)cc21`: the TGI was 61.1 µM in experiment [1]; 65.2 µM in experiment [2]; over 100 µM in [3]; over 100 µM in [4]; over 100 µM in [5]; 76.2 µM in experiment [6]. In addition, the TGI in experiment [7] is 31 µM; in experiment [8], 68.1 µM; in experiment [9] it was over 100 µM; in experiment [10], over 100 µM.

Consider `COc1cc(NC(=O)CSc2nc3ccccc3c(=O)n2CCc2ccccc2)cc(OC)c1OC`, for which the GI50 is 4.8 µM in experiment [1]; 1.81 µM in experiment [2]; 3.49 µM in experiment [6]; 1.57 µM in experiment [7]; 2.14 µM in experiment [8]. Moreover, the TGI in experiment [1] is over 100 µM; in experiment [2] it was 3.81 µM; in [6], 17.5 µM; in experiment [7], 3.69 µM; in experiment [8], 7.16 µM.

In the case of `O=C1C(=c2cc3c(c4ccccc24)=NC24CCCCC2C(c2ccccc2)C=C(c2ccccc2)N34)C(=O)c2ccccc21` (stereo unspecified), the TGI in experiment [1], in experiment [2], in experiment [3], in experiment [4], in experiment [5] and in experiment [6] was over 100 µM each time. The values for the TGI in experiment [7] and in experiment [8] were 49 µM and over 100 µM, respectively.

For the compound `CCCC1=C(C(=O)OCC)C(c2ccccc2OC)C(C#N)=C(N)O1` (stereo unspecified), the GI50 was over 100 µM in experiment [1]; 46.1 µM in [2]; 31.8 µM in [3]; 65.5 µM in [4]; over 100 µM in experiment [5]; over 100 µM in [6]. Besides, the GI50 is 46.5 µM in experiment [7], 22.5 µM in experiment [8], 50.3 µM in [9] and over 100 µM in experiment [10]. The TGI in experiment [1], in experiment [2], in [3], in [4], in experiment [5] and in [6] was over 100 µM throughout. Besides, the TGI in experiment [7] was over 100 µM; in experiment [8] it was 58.2 µM; in experiment [9], over 100 µM; in [10] it was over 100 µM.

For the compound `CNS(=O)(=O)c1ccc2[nH]c(O)c(C3=Nc4ccccc4C3=O)c2c1`, the TGI in [1], in experiment [2], in experiment [3], in experiment [4], in [5] and in experiment [6] was over 100 µM each time. For the same compound, the TGI in experiment [7], in experiment [8], in experiment [9] and in [10] was over 100 µM each time.

Turning to `COc1cc2c(cc1OC)C1Cc3cc(OC)c(OC)cc3C(C2)O1`, the TGI in [1], in experiment [2], in experiment [3], in experiment [4], in experiment [5] and in [6] was over 100 µM each time. The TGI in experiment [7], in [8] and in [10] was over 100 µM in each case.

Regarding `Nc1cccc2c1C1=NNC(=O)CC1C2` (stereo unspecified), the TGI in experiment [1], in experiment [3], in experiment [4], in experiment [5], in experiment [6] and in experiment [7] was over 100 µM each time. The figures for the TGI in experiment [8], in experiment [9] and in [10] were over 100 µM, over 100 µM and over 20.3 µM, respectively.
